Source: patent publication US20210330611A1, “THERAPY FOR NEUROLOGICAL DISEASES/DISORDERS” (priority 2020, published 2021)
“And” between values parts separate entries of the source, which are not always exact repeats. Equal entries are not always repeated. Structures can show the parent of a compound that is named as a salt. Where two headings read alike, the source gives them in different places.

What was measured:
[1] = tested on: fibrin-induced microglia activation; test: Image-based assay of fibrin-induced microglia activation (HTS and dose response); type: cell-based, rat; conditions: for inhibition at 10 µM: read-out: Fibrin % inhibition
[2] = tested on: fibrin- and LPS-induced microglia activation; test: cells; type: cell-based, rat
[3] = tested on: LPS-induced microglia activation; test: Image-based assay of LPS-induced microglia activation (HTS and dose response); type: cell-based, rat
[4] = tested on: primary rat microglia
[5] = tested on: primary rat microglia; test: Cell toxicity (dead cells, size <150 μm2) in coated fibrin (cFib) assay; conditions: for Fibrin % cell toxicity: primary microglia HTS;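 as to Fibrin % cell toxicity: share of dead cells sized under 150 µm2 at 10 µM in fibrin-stimulated microglia HTS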
[6] = Rattus norvegicus, Microglia, 48 h, read-out: LPS % inhibition
[7] = HTS of 1907 compounds, quadrant by fibrin and LPS inhibition
[8] = fibrin assay, dead cells (size <150 μm2), compounds at 10 μM
[9] = classification by fibrin and LPS inhibition, HTS at 10 μM
[10] = fibrin assay, dead cells (size <150 μm2)
[11] = quadrant by fibrin and LPS inhibition, HTS at 10 μM
[12] = primary microglia HTS, LPS stimulation, compounds at 10 μM; 10 µM
[13] = fibrin stimulation, cell size <150 μm2 as marker of toxicity
[14] = Rattus norvegicus, Microglia, primary microglia HTS, fibrin stimulation, cell size >800 μm2 as marker of activation
[15] = Rattus norvegicus, Microglia, primary microglia HTS, fibrin stimulation, compounds at 10 μM
[16] = classification by fibrin and LPS inhibition in HTS
[17] = Rattus norvegicus, Microglia, 48 h; read-out: LPS % inhibition
[18] = Rattus norvegicus, Microglia, primary microglia HTS, LPS stimulation, compounds at 10 μM; read-out: LPS % inhibition
[19] = quadrant by fibrin and LPS inhibition in HTS of 1907 compounds
[20] = Rattus norvegicus, Microglia, Table 7, read-out: fib_IC50
[21] = Rattus norvegicus, Microglia, Table 7; read-out: LPS_IC50

## CC[C@H]1CN2CCc3cc(OC)c(OC)cc3[C@@H]2C[C@@H]1C[C@H]1NCCc2cc(OC)c(OC)cc21 [Emetine, Emetine Dihydrochloride]
[1]
  Fibrin % inhibition: 117%
[2]
  Quadrant (FIG. 5b): Q2
[3]
  LPS % inhibition: 115%
[4]
  LPS % cell toxicity: 46%

## CCCCCCCCCCCCCCCC(=O)NCCO [Palmidrol]
[1]; Rattus norvegicus, Microglia
  inhibition at 10 µM: -40%
[2]
  Quadrant (FIG. 5b): Q4
[3]; [6]
  inhibition at 10 µM: 7%
[4]; rat
  LPS % cell toxicity: 0%

## Cn1nnc2c(C(N)=O)ncn2c1=O [Temozolomide]
[1]; primary microglia HTS, 10 μM, fibrin-stimulated, cell size >800 μm^2 as marker of activation
  Fibrin % inhibition: −31% and −26%
[2]; [7]
  Quadrant (FIG. 5b): Q4
[4]; rat
  LPS % cell toxicity: 0%

## COc1cc2ncnc(Nc3ccc(F)c(Cl)c3)c2cc1OCCCN1CCOCC1 [Gefitinib]
[2]
  Quadrant (FIG. 5b): Q4
[4]; rat
  LPS % cell toxicity: 0%

## C#C[C@]1(OC(C)=O)CC[C@H]2[C@@H]3CCC4=C[C@@H](OC(C)=O)CC[C@@H]4[C@H]3CC[C@@]21C [Ethynodiol Diacetate]
[5]; [8]
  Fibrin % cell toxicity: 1%
[2]; [9]
  Quadrant (FIG. 5b): Q4

## C[C@@H]1[C@H](O)[C@@H](C)/C=C/C=C/C=C/C=C/C=C/C=C/C=C/[C@H](O[C@@H]2O[C@H](C)[C@@H](O)[C@H](N)[C@@H]2O)C[C@@H]2O[C@](O)(C[C@@H](O)C[C@@H](O)[C@H](O)CC[C@@H](O)C[C@@H](O)CC(=O)O[C@H]1C)C[C@H](O)[C@H]2C(=O)O [Amphotericin B]
[5]; [10]
  Fibrin % cell toxicity: 1%
[2]; [11]
  Quadrant (FIG. 5b): Q4

## O=C1CN2Cc3c(ccc(Cl)c3Cl)N=C2N1 [Anagrelide]
[5]; [10]
  Fibrin % cell toxicity: 1%
[2]; [11]
  Quadrant (FIG. 5b): Q4

## O=C1CCc2ccc(OCCCCN3CCN(c4cccc(Cl)c4Cl)CC3)cc2N1 [Aripiprazole]
[2]
  Quadrant (FIG. 5b): Q4
[4]; rat
  LPS % cell toxicity: 0%

## COc1ccc2[nH]c([S+]([O-])Cc3ncc(C)c(OC)c3C)nc2c1 (centres unmarked) [Esomeprazole; Omeprazole]
[5]; [8]
  Fibrin % cell toxicity: 0% and 1%
[2]; [9]
  Quadrant (FIG. 5b): Q4
[3]; [12]
  LPS % inhibition: 24% and 13%

## CC(N)C12CC3CC(CC(C3)C1)C2 (centres unmarked) [Rimantadine]
[5]; [10]
  Fibrin % cell toxicity: 93%
[5]; [13]
  Fibrin % cell toxicity: 0%
[1]; [14]
  inhibition at 10 µM: -19%
[1]; [15]
  inhibition at 10 µM: 106%
[2]; [16]
  Quadrant (FIG. 5b): Q4
[2]; [11]
  Quadrant (FIG. 5b): Q2
[3]; [17]
  inhibition at 10 µM: 2%
[3]; [18]
  inhibition at 10 µM: 106%

## CC#C[C@]1(O)CC[C@H]2[C@@H]3CCC4=CC(=O)CCC4=C3[C@@H](c3ccc(N(C)C)cc3)C[C@@]21C [Mifepristone]
[1]; Rattus norvegicus, Microglia, primary microglia HTS, fibrin stimulation, increased cell size (>800 μm^2) as marker of activation
  inhibition at 10 µM: 12%
[2]; [19]
  Quadrant (FIG. 5b): Q4
[4]; rat
  LPS % cell toxicity: 0%

## CC(C)NCC(O)COc1ccc(CCOCC2CC2)cc1 (centres unmarked) [Betaxolol]
[2]
  Quadrant (FIG. 5b): Q4
[4]; rat
  LPS % cell toxicity: 0%

## C[C@]12CC[C@@H]3c4ccc(O)cc4CC[C@H]3[C@@H]1CC[C@@H]2O [Estradiol]
[2]; [9]
  Quadrant (FIG. 5b): Q4
[4]; rat
  LPS % cell toxicity: 0%

## Clc1ccc2c(c1)CCc1cccnc1C2=C1CCNCC1 [Desloratadine]
[2]
  Quadrant (FIG. 5b): Q4
[4]; rat
  LPS % cell toxicity: 0%

## NC12CC3CC(CC(C3)C1)C2 [Amantadine]
[2]; [11]
  Quadrant (FIG. 5b): Q4
[3]; [12]
  LPS % inhibition: 3% and −5%
[4]; rat
  LPS % cell toxicity: 0%

## CCC(=O)c1c(O)cc(O)cc1O [Flopropione]
[5]; fibrin stimulation, toxicity = cell size <150 μm2
  Fibrin % cell toxicity: 1%
[1]; Rattus norvegicus, Microglia, primary microglia HTS, fibrin stimulation, activation = cell size >800 μm2
  inhibition at 10 µM: -35%
[2]; [19]
  Quadrant (FIG. 5b): Q4
[3]; Rattus norvegicus, Microglia, 48 h, primary microglia HTS, LPS stimulation, activation = cell size >800 μm2; read-out: LPS % inhibition
  inhibition at 10 µM: 10%

## CCN(CC)C(=O)/C(C#N)=C/c1cc(O)c(O)c([N+](=O)[O-])c1 [Entacapone]
[5]; [8]
  Fibrin % cell toxicity: 1%
[2]; [9]
  Quadrant (FIG. 5b): Q4
[3]; [18]
  inhibition at 10 µM: 11%
[3]; [12]
  LPS % inhibition: 17%

## CN(C)CCCN1c2ccccc2Sc2ccc(C(F)(F)F)cc21 [Triflupromazine]
[4]; rat
  LPS % cell toxicity: 1%

## CN(C)C(=O)Oc1cc(OC(=O)N(C)C)cc(C(O)CNC(C)(C)C)c1 (centres unmarked) [Bambuterol]
[5]; [10]
  Fibrin % cell toxicity: 1%
[2]; [11]
  Quadrant (FIG. 5b): Q4
[3]; [18]
  inhibition at 10 µM: 9%
[3]; [12]
  LPS % inhibition: 13%

## CCCc1nc(C)c2c(=O)[nH]c(-c3cc(S(=O)(=O)N4CCN(CC)CC4)ccc3OCC)nn12 [Vardenafil]
[2]; [7]
  Quadrant (FIG. 5b): Q4
[3]; Rattus norvegicus, Microglia, primary microglia HTS, 10 μM, LPS-stimulated, cell size >800 μm^2 as marker of activation; read-out: LPS % inhibition
  inhibition at 10 µM: 12%
[3]; primary microglia HTS, 10 μM, LPS-stimulated, cell size >800 μm^2 as marker of activation
  LPS % inhibition: 13%
[4]; rat
  LPS % cell toxicity: 0%

## O=C(O)C(O)C(O)C(=O)O.OCc1cccnc1 (centres unmarked) [Nicotinyl Alcohol Tartrate]
[2]; [19]
  Quadrant (FIG. 5b): Q4
[4]; rat
  LPS % cell toxicity: 0%

## CC(C)=CCc1c2c(c3occ(-c4ccc(O)c(O)c4)c(=O)c3c1O)C=CC(C)(C)O2 [pomiferin]
[5]; Rattus norvegicus, Microglia, read-out: dead_IC50 (uM), Table 7, fibrin or LPS assay not specified
  IC50: 3.45 µM
[1]; [20]
  IC50: 0.251 µM
[3]; [21]
  IC50: 0.123 µM

## CC(=O)N[C@@H](CS)C(=O)O [Acetylcysteine]
[2]; [11]
  Quadrant (FIG. 5b): Q4
[3]; [18]
  inhibition at 10 µM: 7%
[3]; [12]
  LPS % inhibition: 13%
[4]; rat
  LPS % cell toxicity: 0%

## Cc1ncc(C[n+]2csc(CCO)c2C)c(N)n1 [Thiamine]
[2]
  Quadrant (FIG. 5b): Q4
[4]; rat
  LPS % cell toxicity: 0%

## CC(C)NCC(O)COc1cccc2ccccc12 (centres unmarked) [1-(Isopropylamino)-3-(1-Naphthyloxy)-2-Propanol]
[4]; rat
  LPS % cell toxicity: 0%

## CN1C[C@H](C(=O)N[C@]2(C)O[C@@]3(O)[C@@H]4CCCN4C(=O)[C@H](Cc4ccccc4)N3C2=O)C[C@@H]2c3cccc4[nH]cc(c34)C[C@H]21 [Dihydroergotamine]
[5]; [8]
  Fibrin % cell toxicity: 1% and 0%
[1]; primary microglia HTS, fibrin stimulation, compounds at 10 μM, 10 µM
  Fibrin % inhibition: 7% and −3%
[2]; [9]
  Quadrant (FIG. 5b): Q4
[3]; [18]
  inhibition at 10 µM: 39%
[3]; [12]
  LPS % inhibition: 22%

## Cc1nc2n(c(=O)c1CCN1CCC(c3noc4cc(F)ccc34)CC1)CCCC2 [Risperidone]
[2]
  Quadrant (FIG. 5b): Q4
[4]; rat
  LPS % cell toxicity: 0%

## C[C@@H]1CN(c2c(F)c(N)c3c(=O)c(C(=O)O)cn(C4CC4)c3c2F)C[C@H](C)N1 [Sparfloxacin]
[5]; [13]
  Fibrin % cell toxicity: 0% and 1%
[2]; [16]
  Quadrant (FIG. 5b): Q4
[3]; [17]
  inhibition at 10 µM: 11%

## CCN(CC)C(=O)N[C@H]1C=C2c3cccc4[nH]cc(c34)C[C@H]2N(C)C1 [Lisuride]
[2]
  Quadrant (FIG. 5b): Q4
[4]; rat
  LPS % cell toxicity: 0%

## C[C@H]1O[C@@H](O[C@H]2[C@@H](O)C[C@H](O[C@H]3[C@@H](O)C[C@H](O[C@H]4CC[C@@]5(C)[C@H](CC[C@@H]6[C@@H]5CC[C@]5(C)[C@@H](C7=CC(=O)OC7)CC[C@]65O)C4)O[C@@H]3C)O[C@@H]2C)C[C@H](O)[C@@H]1O [Digitoxin]
[5]; [8]
  Fibrin % cell toxicity: 1%
[2]; [9]
  Quadrant (FIG. 5b): Q4

## Medroxyprogesterone [reference compound]
[1]; Table 1, dose response 0.001-20 μM, triplicates, primary rat microglia, 48 h, read-out: Fibrin IC50
  IC50: > 20 µM
[1]; dose response, fibrin-induced microglia activation, read-out: Fibrin IC50
  IC50: > 20 µM
[1]; fibrin-induced microglia activation, dose response, read-out: Fibrin IC50 (uM) (Suppl. Table 7)
  IC50: > 20 µM
[1]; primary microglia HTS, fibrin stimulation, increased cell size (>800 μm^2) as marker of activation
  Fibrin % inhibition: 61%
[2]; [7]
  Quadrant (FIG. 5b): Q3
[2]; Table 1, screen at 10 μM
  Quadrant (FIG. 5b): Q3
[2]; [19]
  Quadrant (FIG. 5b): Q3
[3]; LPS-induced microglia activation, dose response; read-out: LPS IC50 (uM) (Suppl. Table 7)
  IC50: 8 µM
[3]; Table 1; dose response 0.001-20 μM, triplicates, primary rat microglia, 48 h; read-out: LPS IC50
  IC50: 8 µM
[3]; dose response, LPS-induced microglia activation; read-out: LPS IC50
  IC50: 8 µM
[3]; primary microglia HTS, LPS stimulation; increased cell size (>800 μm^2) as marker of activation
  LPS % inhibition: 6%

## C/C=C/c1ccc(OC)cc1 [Anethole]
[1]; [15]
  inhibition at 10 µM: -37%
[2]; [11]
  Quadrant (FIG. 5b): Q4
[3]; [18]
  inhibition at 10 µM: 13%

## CNCCCC12CCC(c3ccccc31)c1ccccc12 [Maprotiline]
[1]
  Fibrin % inhibition: −4%
[3]
  LPS % inhibition: 78%
[4]; rat
  LPS % cell toxicity: 2%

## CN1CCN(CCCN2c3ccccc3Sc3ccc(Cl)cc32)CC1 [Prochlorperazine]
[1]; Rattus norvegicus, Microglia
  inhibition at 10 µM: 6%
[3]; [6]
  inhibition at 10 µM: 17%
[4]; rat
  LPS % cell toxicity: 1%

## C[C@]12CC[C@H](O)CC1=CC[C@@H]1[C@@H]2CC[C@]2(C)C(=O)CC[C@@H]12 [Prasterone]
[1]; [14]
  inhibition at 10 µM: 1%
[2]; [16]
  Quadrant (FIG. 5b): Q4
[3]; [17]
  inhibition at 10 µM: 15%

## CNC(C)C(O)c1ccccc1 (centres unmarked) [Racephedrine Hydrochloride]
[1]; [14]
  inhibition at 10 µM: -26%
[2]; [16]
  Quadrant (FIG. 5b): Q4
[3]; [17]
  inhibition at 10 µM: 17%

## COc1cc2c(c(OC)c1OC)-c1ccc(=O)c(O)cc1[C@@H](NC(C)=O)CC2 [colchiceine]
[1]; [20]
  IC50: 0.625 µM
[2]; Table 7, fib = fibrin, LPS, tox = toxicity
  Activity: fib/LPS
[3]; [21]
  IC50: 0.82 µM

## CN1CCc2cccc3c2[C@H]1Cc1ccc(O)c(O)c1-3 [Apomorphine Hydrochloride]
[1]; Rattus norvegicus, Microglia
  inhibition at 10 µM: 11%
[2]
  Quadrant (FIG. 5b): Q4
[3]; Rattus norvegicus, Microglia, read-out: LPS % inhibition
  inhibition at 10 µM: -4%
